Results: ChEMBL document CHEMBL5154646, “Structure-guided optimization of 1H-imidazole-2-carboxylic acid derivatives affording potent VIM-Type metallo-β-lactamase inhibitors” (Eur J Med Chem, 2022)
Active and inactive are the calls of the source. No cut-off for these calls is given here.

Assays:
Escherichia coli [1] = assay: Potentiation of meropenem-induced antibacterial activity against Escherichia coli C1580 expressing VIM-2 assessed as fold reduction in meropenem MIC at 10 ug/ml incubated for 18 to 20 hrs by CLSI based broth microtiter dilution method; format: functional; conditions: dose 10 µg/ml; time 18-20 hrs
Escherichia coli [2] = assay: Potentiation of meropenem-induced antibacterial activity against Escherichia coli C1541 expressing IMP-1 assessed as fold reduction in meropenem MIC at 10 ug/ml incubated for 18 to 20 hrs by CLSI based broth microtiter dilution method; format: functional; conditions: dose 10 µg/ml; time 18-20 hrs
[3] = Toxicity in ICR mouse assessed as change in behavior at 500 to 2000 mg/kg, ip administered for 14 days; format: organism-based; conditions: in vivo, 336 h, dose 500-2000 mg/kg, time 14 day
[4] = Toxicity in ICR mouse assessed as mortality at 500 to 2000 mg/kg, ip administered for 14 days; format: organism-based; conditions: in vivo, 336 h, dose 500-2000 mg/kg, time 14 day
[5] = Toxicity in ICR mouse assessed as effect on histological architecture of liver at 500 to 2000 mg/kg, ip administered for 14 days by hematoxylin and eosin staining based histopathological assay; format: organism-based; conditions: in vivo, 336 h, dose 500-2000 mg/kg, time 14 day
[6] = Inhibition of bacterial recombinant full length C-terminal-TEV-His6-tagged VIM-1 expressed in Escherichia coli Transetta using FC-5 as substrate preincubated with enzyme for 10 mins followed by substrate addition by fluorescence based analysis; parameters: species or system Bacteria
[7] = Inhibition of bacterial NDM-1 (1 to 270 residues) expressed in Escherichia coli Transetta (DE3) using FC-5 as substrate preincubated with enzyme for 10 mins followed by substrate addition by fluorescence based analysis; parameters: species or system Bacteria
[8] = Inhibition of bacterial IMP-1 (1 to 246 residues) expressed in Escherichia coli Transetta (DE3) using FC-5 as substrate preincubated with enzyme for 10 mins followed by substrate addition by fluorescence based analysis; parameters: species or system Bacteria
Escherichia coli [9] = assay: Potentiation of meropenem-induced antibacterial activity against Escherichia coli C1541 expressing VIM-2 assessed as meropenem MIC at 10 ug/ml incubated for 18 to 20 hrs by CLSI based broth microtiter dilution method (reference value: 16 ug/ml); format: functional; conditions: dose 10 µg/ml, time 18-20 hrs
Escherichia coli [10] = assay: Potentiation of meropenem-induced antibacterial activity against Escherichia coli C1542 expressing VIM-2 assessed as meropenem MIC at 10 ug/ml incubated for 18 to 20 hrs by CLSI based broth microtiter dilution method (reference value: 16 ug/ml); format: functional; conditions: dose 10 µg/ml, time 18-20 hrs
Escherichia coli [11] = assay: Potentiation of meropenem-induced antibacterial activity against Escherichia coli C1541 expressing IMP-1 assessed as meropenem MIC at 10 ug/ml incubated for 18 to 20 hrs by broth microtiter dilution method (reference value: 32 ug/ml); format: functional; conditions: dose 10 µg/ml, time 18-20 hrs
[12] = Toxicity in ICR mouse assessed as effect on histological architecture of heart at 500 to 2000 mg/kg, ip administered for 14 days by hematoxylin and eosin staining based histopathological assay; format: organism-based; conditions: in vivo, 336 h, dose 500-2000 mg/kg, time 14 day
Escherichia coli [13] = assay: Synergistic antibacterial activity against Escherichia coli C1541 expressing VIM-2 assessed as fractional inhibitory concentration index incubated for 18 to 20 hrs in presence of meropenem by checkerboard microdilution assay; format: functional; conditions: time 18-20 hrs
[14] = Inhibition of bacterial VIM-2 (27 to 266 residues) expressed in Escherichia coli Transetta (DE3) using FC-5 as substrate preincubated with enzyme for 10 mins followed by substrate addition in presence of 1 uM Zn2+ by fluorescence based analysis; parameters: species or system Bacteria
[15] = Inhibition of bacterial VIM-2 (27 to 266 residues) expressed in Escherichia coli Transetta (DE3) using FC-5 as substrate preincubated with enzyme for 10 mins followed by substrate addition in presence of 100 uM Zn2+ by fluorescence based analysis; parameters: species or system Bacteria
Escherichia coli [16] = assay: Bactericidal activity against Escherichia coli C1580 expressing VIM-2 assessed as induction of bacterial ultrastructural changes by measuring breakdown of cell wall with leakage of cellular contents at 20 ug/ml incubated for 1 hr in presence of meropenem by transmission electron microscopy; format: functional, organism-based; conditions: dose 20.0 µg/ml
Escherichia coli [17] = assay: Bactericidal activity against Escherichia coli C1580 expressing VIM-2 assessed as induction of bacterial ultrastructural changes by measuring cellular debris at 20 ug/ml incubated for 1 hr in presence of meropenem by transmission electron microscopy; format: functional, organism-based; conditions: dose 20.0 µg/ml
Pseudomonas aeruginosa [18] = assay: Potentiation of meropenem-induced antibacterial activity against Pseudomonas aeruginosa 5621 expressing VIM-2 assessed as meropenem MIC at 100 ug/ml incubated for 18 to 20 hrs in presence of meropenem by CLSI based broth microtiter dilution method (reference value: 64 ug/ml); format: functional; conditions: dose 100 µg/ml, time 18-20 hrs
Pseudomonas aeruginosa [19] = assay: Synergistic antibacterial activity against Pseudomonas aeruginosa W35 expressing VIM-2 assessed as fractional inhibitory concentration index incubated for 18 to 20 hrs in presence of meropenem by checkerboard microdilution assay; format: functional; conditions: time 18-20 hrs
Pseudomonas aeruginosa [20] = assay: Induction of morphological changes in Pseudomonas aeruginosa W35 expressing VIM-2 assessed as elongated morphology with localized swelling at 10 ug/ml incubated for 1 hr in presence of meropenem by confocal microscopic analysis; format: functional, organism-based; conditions: dose 10.0 µg/ml
Pseudomonas aeruginosa [21] = assay: Induction of morphological changes in Pseudomonas aeruginosa W35 expressing VIM-2 at 10 ug/ml incubated for 1 hr by transmission electron microscopy; format: functional, organism-based; conditions: dose 10.0 µg/ml
Pseudomonas aeruginosa [22] = assay: Induction of morphological changes in Pseudomonas aeruginosa W35 expressing VIM-2 assessed as localized swelling, elongation with increased cell permeability at 10 ug/ml incubated for 1 hr in presence of meropenem by transmission electron microscopy; format: functional, organism-based; conditions: dose 10.0 µg/ml
[23] = Tmax in Sprague-Dawley rat at 100 mg/kg, ip by UPLC analysis; format: ADME, organism-based; conditions: in vivo
[24] = Cmax in Sprague-Dawley rat at 100 mg/kg, ip by UPLC analysis; format: ADME, organism-based; parameters: dose 100 mg/kg, route ip; conditions: in vivo
[25] = Half life in Sprague-Dawley rat at 100 mg/kg, ip by UPLC analysis; format: ADME, organism-based; conditions: in vivo
[26] = Toxicity in ICR mouse assessed as change in body weight at 500 to 2000 mg/kg, ip administered for 14 days; format: organism-based; conditions: in vivo, 336 h, dose 500-2000 mg/kg, time 14 day
[27] = Toxicity in ICR mouse assessed as change in overall appearance at 500 to 2000 mg/kg, ip administered for 14 days; format: organism-based; conditions: in vivo, 336 h, dose 500-2000 mg/kg, time 14 day
[28] = Toxicity in ICR mouse assessed as effect on histological architecture of lungs at 500 to 2000 mg/kg, ip administered for 14 days by hematoxylin and eosin staining based histopathological assay; format: organism-based; conditions: in vivo, 336 h, dose 500-2000 mg/kg, time 14 day
Escherichia coli [29] = assay: Potentiation of meropenem-induced antibacterial activity against Escherichia coli C1541 expressing VIM-2 assessed as fold reduction in meropenem MIC at 10 ug/ml incubated for 18 to 20 hrs by CLSI based broth microtiter dilution method; format: functional; conditions: dose 10 µg/ml; time 18-20 hrs
Escherichia coli [30] = assay: Potentiation of meropenem-induced antibacterial activity against Escherichia coli C1542 expressing VIM-2 assessed as fold reduction in meropenem MIC at 10 ug/ml incubated for 18 to 20 hrs by CLSI based broth microtiter dilution method; format: functional; conditions: dose 10 µg/ml; time 18-20 hrs
Pseudomonas aeruginosa [31] = assay: Potentiation of meropenem-induced antibacterial activity against Pseudomonas aeruginosa W35 expressing VIM-2 assessed as fold reduction in meropenem MIC at 100 ug/ml incubated for 18 to 20 hrs by CLSI based broth microtiter dilution method; format: functional; conditions: dose 100 µg/ml; time 18-20 hrs

In the case of O=C(O)c1nccn1Cc1ccncc1, the “fold change (FC)” value (Escherichia coli [1]) is reported as 32, the “fold change (FC)” value (Escherichia coli [2]) is reported as 1 and the Activity [3] is reported as “Non-Toxic”. For the same compound, the Activity [4] was “Non-Toxic”, the Activity [5] was “Non-Toxic” and the IC50 [6] was 29.5 µM. It also gave an IC50 [7] of over 300 µM, an IC50 [8] of over 300 µM and an MIC (Escherichia coli [9]) of under 0.25 µg/mL. The MIC (Escherichia coli [10]) was under 0.25 µg/mL, the MIC (Escherichia coli [11]) was 32 µg/mL and the Activity [12] was “Non-Toxic”. The “fractional inhibitory concentration index (FICI)” value (Escherichia coli [13]) was 0.05, the IC50 [14] was 0.22 µM and the IC50 [15] was 1.75 µM. For the same compound, the Activity (Escherichia coli [16]) was “Active”, the Activity (Escherichia coli [17]) was “Active” and the MIC (Pseudomonas aeruginosa [18]) was 32 µg/mL. The “fractional inhibitory concentration index (FICI)” value (Pseudomonas aeruginosa [19]) was 0.25, the Activity (Pseudomonas aeruginosa [20]) was “Active” and the Activity (Pseudomonas aeruginosa [21]) was “Active”. The Activity (Pseudomonas aeruginosa [22]) was “Active”, the Tmax [23] was 9 min and the Cmax [24] was 143 µg/mL. The half-life [25] was 74.4 min, the Activity [26] was “Non-Toxic” and the Activity [27] was “Non-Toxic”. For the same compound, the Activity [28] was “Non-Toxic”, the “fold change (FC)” value (Escherichia coli [29]) was over 64 and the “fold change (FC)” value (Escherichia coli [30]) was over 64. The “fold change (FC)” value (Pseudomonas aeruginosa [31]) was 16.
